42 molecules from ChEMBL document CHEMBL5291721, “A preclinical secondary pharmacology resource illuminates target-adverse drug reaction associations of marketed drugs” (Nat Commun, 2023) can be followed below.

The target in test [1] is Mu-type opioid receptor (Homo sapiens, UniProt P35372). Description: biochemical. The class given is functional.
The target in test [2] is Gamma-aminobutyric acid receptor subunit alpha-1/alpha-2/beta-2/gamma-2 (Homo sapiens, UniProt P14867+P18507+P47869+P47870). The class given is functional, cell-based.
The target of test [3] is T1, Corticotropin-releasing factor receptor 2 (Homo sapiens, UniProt Q13324).
T1 sequence (Q13324 whole entry): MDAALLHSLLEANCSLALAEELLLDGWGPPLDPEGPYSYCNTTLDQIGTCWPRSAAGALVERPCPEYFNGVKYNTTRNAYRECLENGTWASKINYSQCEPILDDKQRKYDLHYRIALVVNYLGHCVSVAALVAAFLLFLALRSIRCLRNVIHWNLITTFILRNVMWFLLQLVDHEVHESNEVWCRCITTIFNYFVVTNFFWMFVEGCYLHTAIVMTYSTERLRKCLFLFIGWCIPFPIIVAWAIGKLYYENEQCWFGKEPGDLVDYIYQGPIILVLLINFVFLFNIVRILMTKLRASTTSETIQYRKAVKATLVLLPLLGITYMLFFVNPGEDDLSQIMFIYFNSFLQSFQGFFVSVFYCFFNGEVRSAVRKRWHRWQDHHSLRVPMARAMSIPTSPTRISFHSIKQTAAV

Test [4] has as its target T2, Alpha-1A adrenergic receptor (Homo sapiens, UniProt P35348).
T2 sequence (P35348 whole entry): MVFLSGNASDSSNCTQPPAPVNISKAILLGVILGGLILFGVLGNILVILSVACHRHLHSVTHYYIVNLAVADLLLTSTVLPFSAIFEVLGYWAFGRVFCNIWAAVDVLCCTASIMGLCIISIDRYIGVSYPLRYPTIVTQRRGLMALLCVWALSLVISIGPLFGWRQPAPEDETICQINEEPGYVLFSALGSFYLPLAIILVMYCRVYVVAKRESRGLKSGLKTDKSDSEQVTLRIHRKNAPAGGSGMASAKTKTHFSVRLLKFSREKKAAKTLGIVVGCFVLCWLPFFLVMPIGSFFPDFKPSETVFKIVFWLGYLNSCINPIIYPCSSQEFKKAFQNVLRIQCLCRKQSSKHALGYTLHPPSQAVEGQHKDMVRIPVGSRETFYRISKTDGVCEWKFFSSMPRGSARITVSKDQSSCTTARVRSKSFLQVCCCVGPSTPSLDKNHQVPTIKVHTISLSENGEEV

The target in test [5] is T3, Alpha-2A adrenergic receptor (Homo sapiens, UniProt P08913).
T3 sequence (P08913 whole entry): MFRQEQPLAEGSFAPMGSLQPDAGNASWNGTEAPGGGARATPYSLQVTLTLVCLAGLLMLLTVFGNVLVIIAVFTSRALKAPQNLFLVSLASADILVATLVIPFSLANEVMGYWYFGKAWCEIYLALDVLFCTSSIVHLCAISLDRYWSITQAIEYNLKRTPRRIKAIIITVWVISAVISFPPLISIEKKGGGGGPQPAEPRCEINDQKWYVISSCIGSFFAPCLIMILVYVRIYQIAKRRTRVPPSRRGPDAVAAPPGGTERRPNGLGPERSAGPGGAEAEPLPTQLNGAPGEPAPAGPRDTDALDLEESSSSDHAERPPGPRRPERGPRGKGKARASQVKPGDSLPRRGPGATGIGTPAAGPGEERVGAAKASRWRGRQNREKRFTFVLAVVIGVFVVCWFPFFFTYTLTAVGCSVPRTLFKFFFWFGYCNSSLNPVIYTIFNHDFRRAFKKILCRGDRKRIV

The target of test [6] is T4, Androgen receptor (Homo sapiens, UniProt P10275).
T4 sequence (P10275 whole entry): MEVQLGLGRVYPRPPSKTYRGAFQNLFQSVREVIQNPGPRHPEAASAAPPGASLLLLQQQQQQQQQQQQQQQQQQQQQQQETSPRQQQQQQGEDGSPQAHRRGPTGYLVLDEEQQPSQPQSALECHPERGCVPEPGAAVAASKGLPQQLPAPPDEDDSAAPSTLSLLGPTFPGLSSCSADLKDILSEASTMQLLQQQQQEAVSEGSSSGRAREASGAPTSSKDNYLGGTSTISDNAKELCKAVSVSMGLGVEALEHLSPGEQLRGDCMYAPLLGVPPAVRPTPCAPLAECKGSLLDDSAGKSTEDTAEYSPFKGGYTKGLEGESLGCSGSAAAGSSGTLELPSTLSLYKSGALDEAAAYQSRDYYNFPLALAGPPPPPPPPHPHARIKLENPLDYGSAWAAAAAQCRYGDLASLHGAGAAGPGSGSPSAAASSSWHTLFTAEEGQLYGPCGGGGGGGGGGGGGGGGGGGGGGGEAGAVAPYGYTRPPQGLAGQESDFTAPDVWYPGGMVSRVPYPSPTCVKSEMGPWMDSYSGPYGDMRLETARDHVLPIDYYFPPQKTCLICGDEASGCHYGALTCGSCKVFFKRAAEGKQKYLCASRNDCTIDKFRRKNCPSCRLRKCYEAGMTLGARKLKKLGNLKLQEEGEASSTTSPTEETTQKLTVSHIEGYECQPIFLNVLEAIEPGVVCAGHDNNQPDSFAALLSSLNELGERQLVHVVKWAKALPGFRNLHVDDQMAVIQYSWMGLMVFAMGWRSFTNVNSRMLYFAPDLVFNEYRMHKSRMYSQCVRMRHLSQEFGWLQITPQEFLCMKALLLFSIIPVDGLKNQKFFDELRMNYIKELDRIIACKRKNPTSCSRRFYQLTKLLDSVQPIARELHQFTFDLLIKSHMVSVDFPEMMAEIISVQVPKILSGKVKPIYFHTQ

Molecules are shown by their SMILES. Bounds are passed on as bounds.

Sequence of Gamma-aminobutyric acid receptor subunit alpha-1/alpha-2/beta-2/gamma-2 (P14867 whole entry): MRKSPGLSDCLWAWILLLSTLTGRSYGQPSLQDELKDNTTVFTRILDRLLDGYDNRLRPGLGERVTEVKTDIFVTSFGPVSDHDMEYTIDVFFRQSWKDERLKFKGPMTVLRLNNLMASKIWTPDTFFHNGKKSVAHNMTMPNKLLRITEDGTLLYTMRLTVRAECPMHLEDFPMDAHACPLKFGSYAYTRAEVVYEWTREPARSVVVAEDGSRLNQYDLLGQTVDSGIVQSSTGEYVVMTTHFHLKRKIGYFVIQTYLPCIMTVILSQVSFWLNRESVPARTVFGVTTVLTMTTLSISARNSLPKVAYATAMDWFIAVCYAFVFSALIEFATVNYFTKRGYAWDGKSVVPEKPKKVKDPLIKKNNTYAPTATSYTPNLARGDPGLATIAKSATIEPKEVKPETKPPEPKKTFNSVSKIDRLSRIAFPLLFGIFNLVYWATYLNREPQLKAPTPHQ
Sequence of Gamma-aminobutyric acid receptor subunit alpha-1/alpha-2/beta-2/gamma-2 (P47870 whole entry): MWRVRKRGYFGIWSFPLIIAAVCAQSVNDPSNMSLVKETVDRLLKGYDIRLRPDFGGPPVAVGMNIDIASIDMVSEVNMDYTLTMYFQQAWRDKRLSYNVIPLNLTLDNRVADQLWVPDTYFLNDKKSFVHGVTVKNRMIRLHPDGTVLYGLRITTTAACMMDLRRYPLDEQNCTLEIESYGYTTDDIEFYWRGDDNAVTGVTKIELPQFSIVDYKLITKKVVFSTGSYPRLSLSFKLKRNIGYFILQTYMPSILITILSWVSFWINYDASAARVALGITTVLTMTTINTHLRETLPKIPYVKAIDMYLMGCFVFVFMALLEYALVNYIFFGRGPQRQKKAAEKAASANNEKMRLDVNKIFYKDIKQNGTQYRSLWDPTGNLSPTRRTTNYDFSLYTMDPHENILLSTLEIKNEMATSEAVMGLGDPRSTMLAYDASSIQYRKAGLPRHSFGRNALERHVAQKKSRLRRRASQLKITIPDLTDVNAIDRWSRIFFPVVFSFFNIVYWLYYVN
Sequence of Gamma-aminobutyric acid receptor subunit alpha-1/alpha-2/beta-2/gamma-2 (P18507 whole entry): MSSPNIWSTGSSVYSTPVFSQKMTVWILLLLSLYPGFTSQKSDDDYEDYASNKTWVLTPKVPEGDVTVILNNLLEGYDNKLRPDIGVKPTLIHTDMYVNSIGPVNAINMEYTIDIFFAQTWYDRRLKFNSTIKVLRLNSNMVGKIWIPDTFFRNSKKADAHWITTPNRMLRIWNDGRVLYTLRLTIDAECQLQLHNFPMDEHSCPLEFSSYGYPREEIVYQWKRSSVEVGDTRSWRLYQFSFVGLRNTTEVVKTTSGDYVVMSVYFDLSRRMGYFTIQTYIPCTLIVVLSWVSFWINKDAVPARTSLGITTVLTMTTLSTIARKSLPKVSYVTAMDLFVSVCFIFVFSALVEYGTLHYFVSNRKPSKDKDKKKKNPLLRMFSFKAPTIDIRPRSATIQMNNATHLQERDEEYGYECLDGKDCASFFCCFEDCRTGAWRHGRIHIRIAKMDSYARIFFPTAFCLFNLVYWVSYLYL
Sequence of Gamma-aminobutyric acid receptor subunit alpha-1/alpha-2/beta-2/gamma-2 (P47869 whole entry): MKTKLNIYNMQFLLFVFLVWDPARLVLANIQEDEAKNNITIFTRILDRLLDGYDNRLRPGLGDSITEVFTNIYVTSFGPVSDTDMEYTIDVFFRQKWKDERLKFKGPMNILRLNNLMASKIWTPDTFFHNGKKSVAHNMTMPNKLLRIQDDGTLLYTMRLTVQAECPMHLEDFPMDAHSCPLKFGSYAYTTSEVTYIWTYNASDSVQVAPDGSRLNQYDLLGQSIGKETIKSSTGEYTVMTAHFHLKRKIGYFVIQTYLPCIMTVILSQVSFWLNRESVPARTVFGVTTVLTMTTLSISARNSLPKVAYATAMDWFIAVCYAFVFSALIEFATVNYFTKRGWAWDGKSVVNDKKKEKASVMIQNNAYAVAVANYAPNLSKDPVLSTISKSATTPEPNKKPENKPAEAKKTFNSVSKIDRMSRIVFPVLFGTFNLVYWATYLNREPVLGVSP
Sequence of Mu-type opioid receptor (P35372 whole entry): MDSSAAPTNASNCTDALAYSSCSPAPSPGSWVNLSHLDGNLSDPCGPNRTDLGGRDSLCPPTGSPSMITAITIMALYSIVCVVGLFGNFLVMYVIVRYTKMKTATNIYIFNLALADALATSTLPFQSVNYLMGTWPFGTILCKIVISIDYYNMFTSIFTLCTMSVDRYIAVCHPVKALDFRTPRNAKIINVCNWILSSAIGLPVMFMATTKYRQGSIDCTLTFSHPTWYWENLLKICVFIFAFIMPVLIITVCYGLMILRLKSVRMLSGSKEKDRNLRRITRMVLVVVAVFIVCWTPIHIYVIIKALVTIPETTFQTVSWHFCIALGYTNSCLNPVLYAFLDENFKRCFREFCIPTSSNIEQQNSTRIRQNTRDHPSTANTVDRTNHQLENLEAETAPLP

Consider `CCCCN1C[C@H](O)[C@@H](O)[C@H](O)[C@H]1CO`, for which the concentration at half-maximal activity (AC50) (in general, the concentration at which the activity in the assay is half-maximal) in test [1] is over 30 µM.

In turn, `CN(C)CCC=C1c2ccccc2C(C)(C)c2ccccc21` had an AC50 in test [2] of over 30 µM.

Regarding `CCOC(=O)[C@H](CCc1ccccc1)N[C@@H](C)C(=O)N1[C@H](C(=O)O)C[C@@H]2CCC[C@@H]21`, the concentration at half-maximal activity (AC50) in test [3] is over 30 µM; in test [4], over 10 µM; in test [5] it was over 10 µM.

As to `Nc1nc(NC2CC2)c2ncn([C@H]3C=C[C@@H](CO)C3)c2n1` [ABACAVIR], the concentration at half-maximal activity (AC50) in test [2] and in test [1] was over 30 µM each time.

`CC(=O)NCCCS(=O)(=O)O` [ACAMPROSATE]: the concentration at half-maximal activity (AC50) in test [1] was over 30 µM.

In the case of `CC(=O)Nc1ccc(O)cc1` [ACETAMINOPHEN], the AC50 in test [2] and in test [6] was over 30 µM throughout.

`COc1cc2nc(N(C)CCCNC(=O)C3CCCO3)nc(N)c2cc1OC` (centres undefined) [ALFUZOSIN]: the AC50 in test [1] is over 30 µM.

For the molecule `C=CCc1ccccc1OCC(O)CNC(C)C` (centres undefined) [ALPRENOLOL], the AC50 in test [6] was over 0.3 µM; in test [1], over 30 µM.

In turn, `CNC(=O)c1ccccc1Sc1ccc2c(/C=C/c3ccccn3)n[nH]c2c1` [AXITINIB] gave a concentration at half-maximal activity (AC50) in test [2] of over 30 µM.

Consider `CC[C@H]1OC(=O)[C@H](C)[C@@H](O[C@H]2C[C@@](C)(OC)[C@@H](O)[C@H](C)O2)[C@H](C)[C@@H](O[C@@H]2O[C@H](C)C[C@H](N(C)C)[C@H]2O)[C@](C)(O)C[C@@H](C)CN(C)[C@H](C)[C@@H](O)[C@]1(C)O` [AZITHROMYCIN], for which the AC50 in test [3] was over 30 µM; in test [4], over 10 µM; in test [5] it was over 10 µM.

`CN(C)CCn1nnnc1SCC1=C(C(=O)O)N2C(=O)[C@@H](NC(=O)Cc3csc(N)n3)[C@H]2SC1` [CEFOTIAM]: in test [6], the half-maximal activity concentration (AC50) was over 30 µM.

Take `Cc1ccc(-c2cc(C(F)(F)F)nn2-c2ccc(S(N)(=O)=O)cc2)cc1` [CELECOXIB]: the half-maximal activity concentration (AC50) in test [3] is over 30 µM; in test [4], over 10 µM; in test [5], over 10 µM.

In the case of `CC1=C(C(=O)O)N2C(=O)[C@@H](NC(=O)[C@H](N)c3ccccc3)[C@H]2SC1` [CEPHALEXIN ANHYDROUS], the results for the half-maximal activity concentration (AC50) in test [3], in test [4] and in test [5] were over 30 µM, over 10 µM and over 10 µM, respectively.

For `COCc1c(C(C)C)nc(C(C)C)c(/C=C/[C@@H](O)C[C@@H](O)CC(=O)O)c1-c1ccc(F)cc1` [CERIVASTATIN], the AC50 in test [6] is over 30 µM.

In test [1], `CN1C(=O)CCS(=O)(=O)C1c1ccc(Cl)cc1` (centres undefined) [CHLORMEZANONE] displayed an AC50 of over 30 µM.

As for `CN(C)CCC(c1ccc(Cl)cc1)c1ccccn1` (centres undefined) [CHLORPHENIRAMINE], the AC50 is over 30 µM in test [3], over 10 µM in test [4] and over 10 µM in test [5].

In test [6], `CN(C)[C@@H](c1cccc(O)c1)[C@H]1CCCC[C@H]1O` [CIRAMADOL] registered an AC50 of over 30 µM.

Regarding `CN(C)/N=N/c1[nH]cnc1C(N)=O` [DACARBAZINE], the AC50 in test [1] is over 30 µM.

In test [6], `CN(C)CC(c1ccc(O)cc1)C1(O)CCCCC1` (centres undefined) [DESVENLAFAXINE] returned an AC50 of over 30 µM.

Regarding `O=C(Cc1ccc(-c2ccccc2)cc1)Nc1ccccn1` [DIFENPIRAMIDE], the half-maximal activity concentration (AC50) in test [2], in test [6] and in test [1] was over 30 µM throughout.

In turn, `Cc1cc(C#N)cc(C)c1Oc1nc(Nc2ccc(C#N)cc2)nc(N)c1Br` [ETRAVIRINE] displayed a concentration at half-maximal activity (AC50) in test [6] of over 30 µM.

`O=C(O)c1cc(O)ccc1O` [GENTISIC ACID]: the AC50 in test [6] is over 30 µM.

For `CCC1=C(C)CN(C(=O)NCCc2ccc(S(=O)(=O)NC(=O)N[C@H]3CC[C@H](C)CC3)cc2)C1=O` [GLIMEPIRIDE], the AC50 in test [6] was over 30 µM.

With `C[C@]12CCC(=O)C=C1CC[C@@H]1[C@@H]2[C@@H](O)C[C@@]2(C)[C@H]1CC[C@]2(O)C(=O)CO` [HYDROCORTISONE], the concentration at half-maximal activity (AC50) was over 30 µM in test [3] and over 10 µM in test [5].

`O=P1(NCCCl)OCCCN1CCCl` (centres undefined) [IFOSFAMIDE] registered a concentration at half-maximal activity (AC50) in test [1] of over 30 µM.

Take `CC(C)Nc1ncccn1` [ISAXONINE]: the concentration at half-maximal activity (AC50) in test [6] is over 30 µM.

In test [2], `C[C@H]1CNCCc2ccc(Cl)cc21` [LORCASERIN] registered a half-maximal activity concentration (AC50) of over 30 µM.

`OCCN1C[C@H](O)[C@@H](O)[C@H](O)[C@H]1CO` [MIGLITOL] returned an AC50 in test [6] of over 30 µM.

`CC1(C)NC(=O)N(c2ccc([N+](=O)[O-])c(C(F)(F)F)c2)C1=O` [NILUTAMIDE] showed a concentration at half-maximal activity (AC50) in test [1] of over 30 µM.

Consider `Cc1nc([N+](=O)[O-])cn1-c1ccc([N+](=O)[O-])cc1` [NITREFAZOLE], for which, in test [1], the AC50 was over 30 µM.

On to `CC[C@H]1[C@@H](O)[C@@H]2[C@H](CC[C@]3(C)[C@@H]([C@H](C)CCC(=O)O)CC[C@@H]23)[C@@]2(C)CC[C@@H](O)C[C@@H]12` [OBETICHOLIC ACID], for which the AC50 in test [6] and in test [1] was over 30 µM throughout.

With `CC[N+]1(C)[C@@H]2CC(OC(=O)[C@H](CO)c3ccccc3)C[C@H]1[C@@H]1O[C@@H]12` (some centres undefined) [OXITROPIUM], the half-maximal activity concentration (AC50) in test [6] was over 30 µM.

As for `CCCN1C[C@H](CSC)C[C@@H]2c3cccc4[nH]cc(c34)C[C@H]21` [PERGOLIDE], the concentration at half-maximal activity (AC50) in test [2] and in test [3] was over 30 µM each time.

As to `CN(C)S(=O)(=O)c1ccc2c(c1)N(CCCN1CCC(CCO)CC1)c1ccccc1S2` [PIPOTIAZINE], the half-maximal activity concentration (AC50) in test [6] is over 30 µM.

In test [2], `COCCCN1CCC(NC(=O)c2cc(Cl)c(N)c3c2OCC3)CC1` [PRUCALOPRIDE] registered an AC50 of over 30 µM.

Turning to `CCC(=O)NCC[C@@H]1CCc2ccc3c(c21)CCO3` [RAMELTEON], the AC50 in test [6] was over 30 µM.

For the molecule `COc1ccccc1OCC(O)CN1CCN(CC(=O)Nc2c(C)cccc2C)CC1` (centres undefined) [RANOLAZINE], the AC50 in test [5] was 13 µM; in test [1], over 30 µM.

Regarding `CO[C@H]1C[C@@H]2CC[C@@H](C)[C@@](O)(O2)C(=O)C(=O)N2CCCC[C@H]2C(=O)O[C@H]([C@H](C)C[C@@H]2CC[C@@H](O)[C@H](OC)C2)CC(=O)[C@H](C)/C=C(\C)[C@@H](O)[C@@H](OC)C(=O)[C@H](C)C[C@H](C)/C=C/C=C/C=C/1C` [SIROLIMUS], the AC50 in test [3] and in test [6] was over 30 µM throughout.

Turning to `Clc1ccc2nsnc2c1NC1=NCCN1` [TIZANIDINE], the results for the AC50 in test [3], in test [4] and in test [1] were over 30 µM, 1.92 µM and over 30 µM, respectively.

`CCOC(=O)[C@H](CCc1ccccc1)N[C@@H](C)C(=O)N1[C@H](C(=O)O)C[C@H]2CCCC[C@@H]21` [TRANDOLAPRIL] displayed an AC50 in test [6] of over 30 µM.

`O=C(O[C@H]1C[C@H]2CC[C@@H](C1)[N+]21CCCC1)C(O)(c1ccccc1)c1ccccc1` [TROSPIUM] displayed an AC50 in test [1] of over 30 µM.

In turn, `CCCCCCOc1nsnc1C1=CCCN(C)C1` [XANOMELINE] yielded a concentration at half-maximal activity (AC50) in test [6] of over 30 µM.
